Laboratory results from US6495523B1, “Tricyclic monosaccharide derivatives useful in treating acute ischemia-induced neurodegeneration” (Ortho McNeil-Pharmaceutical, Inc., priority 1999, dated 2002).

Assays:
Male Long-Evans rats = test: Neurologic assessment in rat cardiac arrest (global ischemia) model; assay type: in vivo; details: conditions of Table 1
Procedure: Male Long-Evans rats (250 g) were obtained from Charles River Laboratories, Portage, Mich. The neurologic function and seizure susceptibility of each animal was tested according to the methods described below. The rats were housed in the experimental laboratory for at least 24 h prior to study to avoid transit stress and to ensure a 24-h fasting period. Only rats with blood glucose levels of 100 mg/dL or less at the end of fasting were used in the experiments.
General anesthesia was induced with ketamine (100 mg/kg, ip) and maintained with small fractional supplements as needed. Tracheal intubation was performed using a custom-made fiberoptic rodent laryngoscope and a 14-gauge polyethylene catheter. Needle electrodes were inserted in the scalp and thorax to monitor the EEG and ECG, respectively, while blood pressure was measured via an indwelling femoral arterial cannula. Body and brain temperatures were monitored by thermistors placed in the rectum and temporalis muscle, respectively. […]
Neurologic assessment was identical to that described for the use with this model by Wauquier et al. (Neuropharmacology 1989; 28(8):837-846). […] In addition to the neurodeficit score, the angle of inclination at which the rat could no longer cling to the inclined plane was determined. Performance was quantified as percent of preinsult baseline.

human epilepsy = details: adjunctive therapy or monotherapy; clinical trials; cited from earlier work

Row | Compound | detrimental effect on exploratory behavior (effect in words) (Male Long-Evans rats) | ischemia-induced neurological deficit (effect in words) (Male Long-Evans rats) | efficacy in treating simple and complex partial seizures and secondarily generalized seizures (human epilepsy)
1 | CC1(C)O[C@H]2[C@@H]3OS(=O)(=O)O[C@@H]3CO[C@@]2(COS(N)(=O)=O)O1 [RWJ-37947] | significantly reduced | significantly reduced | 
2 | CC1(C)O[C@@H]2[C@@H](CO[C@@]3(COS(N)(=O)=O)OC(C)(C)O[C@@H]23)O1 [topiramate, 2,3:4,5-bis-O-(1-methylethylidene)-β-D-fructopyranose sulfamate] |  |  | effective
